Assays:
[1] = system: Human platelet aggregation caused by ADP; experiment: Inhibition of ADP-induced platelet aggregation (Mimic-human PRP); format: cell-based; conditions: 20 μM ADP, human platelet concentrate diluted with PPP, absorption at 595 nm
Outline: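 Ki came from non-linear sigmoidal fits of inhibition, measured as the 3-min rise in absorbance at 595 nm after 20 μM ADP, relative to 0/20 μM ADP controls. Platelets (3–4×10^8/mL in PPP-diluted human PRP) were exposed to 0.01–30 μM compound for 20 min at room temperature beforehand.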

Human P2Y12 receptor = target: T1, Human P2Y12 receptor (Homo sapiens, UniProt Q9H244); experiment: Human P2Y12 receptor cell membrane binding assay with [3H] 2-Mes-ADP; conditions: 1 nM [3H] 2-Mes-ADP, membranes of HEK cells expressing P2Y12 receptor; read-out: Binding activity (IC50)
T1 construct: expressed in transfected cells; host or cells: HEK cells
Outline: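 Competition binding used 1 nM [3H]2-MeS-ADP on P2Y12-expressing HEK cell membranes for 1 h at room temperature, followed by filtration and scintillation counting.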

T1 sequence (Q9H244 whole entry): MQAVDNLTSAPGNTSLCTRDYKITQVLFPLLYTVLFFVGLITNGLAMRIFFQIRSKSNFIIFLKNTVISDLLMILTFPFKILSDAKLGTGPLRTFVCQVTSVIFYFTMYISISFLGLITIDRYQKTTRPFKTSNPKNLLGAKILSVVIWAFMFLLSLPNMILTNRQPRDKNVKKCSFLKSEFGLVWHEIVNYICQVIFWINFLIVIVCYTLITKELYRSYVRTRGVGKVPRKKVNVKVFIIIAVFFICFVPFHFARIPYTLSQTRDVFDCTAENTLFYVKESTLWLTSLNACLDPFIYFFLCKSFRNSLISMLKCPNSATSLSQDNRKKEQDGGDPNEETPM

| Structure (SMILES) | Ki [1] | IC50 (Human P2Y12 receptor) |
| --- | --- | --- |
| CCCc1cc2c(N3CCn4c(nnc4C(F)(F)F)C3)nc(NCc3ccccc3)nc2s1 [Example 1-32, Benzyl-[6-propyl-4-(3-trifluoromethyl-5,6-dihydro-8H-[1,2,4]triazolo[4,3-a]pyrazin-7-yl)-thieno[2,3-d]pyrimidin-2-yl]-amine] | > 4000 nM | 95 nM |
| CCCc1cc2c(N3CCn4c(nnc4C(F)(F)F)C3)nc(N[C@@H]3C[C@H](OCCO)[C@@H](O)[C@H]3O)nc2s1 [Example 1-33, (1S,2S,3S,5R)-3-(2-Hydroxy-ethoxy)-5-[6-propyl-4-(3-trifluoromethyl-5,6-dihydro-8H-[1,2,4]triazolo[4,3-a]pyrazin-7-yl)-thieno[2,3-d]pyrimidin-2-ylamino]-cyclopentane-1,2-diol] | 250 nM | 780 nM |
| CCCc1cc2c(N3CCn4c(nnc4C(F)(F)F)C3)nc(N(CCO)CCO)nc2s1 [Example 1-34, 2-{(2-Hydroxy-ethyl)-[6-propyl-4-(3-trifluoromethyl-5,6-dihydro-8H-[1,2,4]triazolo[4,3-a]pyrazin-7-yl)-thieno[2,3-d]pyrimidin-2-yl]-amino}-ethanol] | 81 nM | 143 nM |
| CCCc1cc2c(N3CCn4c(nnc4C(F)(F)F)C3)nc(N3CCOC(=O)C3)nc2s1 [Example 1-35, 4-[6-Propyl-4-(3-trifluoromethyl-5,6-dihydro-8H-[1,2,4]triazolo[4,3-a]pyrazin-7-yl)-thieno[2,3-d]pyrimidin-2-yl]-morpholin-2-one] | 54 nM | 135 nM |
| CCCc1cc2c(N3CCn4c(nnc4C(F)(F)F)C3)nc(Nc3ccccc3)nc2s1 [Example 1-36, Phenyl-[6-propyl-4-(3-trifluoromethyl-5,6-dihydro-8H-[1,2,4]triazolo[4,3-a]pyrazin-7-yl)-thieno[2,3-d]pyrimidin-2-yl]-amine] | 1200 nM | 170 nM |
| CCCc1cc2c(N3CCn4c(nnc4C(F)(F)F)C3)nc(Nc3ncccn3)nc2s1 [Example 1-37, [6-Propyl-4-(3-trifluoromethyl-5,6-dihydro-8H-[1,2,4]triazolo[4,3-a]pyrazin-7-yl)-thieno[2,3-d]pyrimidin-2-yl]-pyrimidin-2-yl-amine] | 850 nM | 550 nM |
| CCCc1cc2c(N3CCn4c(nnc4C(F)(F)F)C3)nc(N3CCN(c4ccc(O)cc4)CC3)nc2s1 [Example 1-38, 4-{4-[6-Propyl-4-(3-trifluoromethyl-5,6-dihydro-8H-[1,2,4]triazolo[4,3-a]pyrazin-7-yl)-thieno[2,3-d]pyrimidin-2-yl]-piperazin-1-yl}-phenol] | 180 nM | 100 nM |
| CCCc1cc2c(N3CCn4c(nnc4C(F)(F)F)C3)nc(N3CCN(c4cccc(O)c4)CC3)nc2s1 [Example 1-39, 3-{4-[6-Propyl-4-(3-trifluoromethyl-5,6-dihydro-8H-[1,2,4]triazolo[4,3-a]pyrazin-7-yl)-thieno[2,3-d]pyrimidin-2-yl]-piperazin-1-yl}-phenol] | 550 nM | 140 nM |
| CCCc1cc2c(N3CCn4c(nnc4C(F)(F)F)C3)nc(N3CCN(C4CCCC4)CC3)nc2s1 [Example 1-40, 7-[2-(4-Cyclopentyl-piperazin-1-yl)-6-propyl-thieno[2,3-d]pyrimidin-4-yl]-3-trifluoromethyl-5,6,7,8-tetrahydro-[1,2,4]triazolo[4,3-a]pyrazine] | 175 nM | 200 nM |
| CCCc1cc2c(N3CCn4c(nnc4C(F)(F)F)C3)nc(N3CCN(CC4CCCC4)CC3)nc2s1 [Example 1-41, 7-[2-(4-Cyclopentylmethyl-piperazin-1-yl)-6-propyl-thieno[2,3-d]pyrimidin-4-yl]-3-trifluoromethyl-5,6,7,8-tetrahydro-[1,2,4]triazolo[4,3-a]pyrazine] | 1600 nM | 536 nM |
| CCCc1cc2c(N3CCn4c(nnc4C(F)(F)F)C3)nc(N3CCN(CC4CCCCC4)CC3)nc2s1 [Example 1-42, 7-[2-(4-Cyclohexylmethyl-piperazin-1-yl)-6-propyl-thieno[2,3-d]pyrimidin-4-yl]-3-trifluoromethyl-5,6,7,8-tetrahydro-[1,2,4]triazolo[4,3-a]pyrazine] | 7300 nM | 1170 nM |
| CCCc1cc2c(N3CCn4c(nnc4C(F)(F)F)C3)nc(NCCC(=O)OCC)nc2s1 [Example 1-43, 3-[6-Propyl-4-(3-trifluoromethyl-5,6-dihydro-8H-[1,2,4]triazolo[4,3-a]pyrazin-7-yl)-thieno[2,3-d]pyrimidin-2-ylamino]-propionic acid ethyl ester] | 670 nM | 134 nM |
| CCCc1cc2c(N3CCn4c(nnc4C(F)(F)F)C3)nc(NCCC(=O)O)nc2s1 [Example 1-44, 3-[6-Propyl-4-(3-trifluoromethyl-5,6-dihydro-8H-[1,2,4]triazolo[4,3-a]pyrazin-7-yl)-thieno[2,3-d]pyrimidin-2-ylamino]-propionic acid] | 260 nM | 59 nM |
| CCCc1cc2c(N3CCn4c(nnc4C(F)(F)F)C3)nc(N3CCCC(C(=O)OCC)C3)nc2s1 (centres unmarked) [Example 1-45, 1-[6-Propyl-4-(3-trifluoromethyl-5,6-dihydro-8H-[1,2,4]triazolo[4,3-a]pyrazin-7-yl)-thieno[2,3-d]pyrimidin-2-yl]-piperidine-3-carboxylic acid ethyl ester] | 1000 nM | 340 nM |
| CCCc1cc2c(N3CCn4c(nnc4C(F)(F)F)C3)nc(N3CCCC(C(=O)O)C3)nc2s1 (centres unmarked) [Example 1-46, 1-[6-Propyl-4-(3-trifluoromethyl-5,6-dihydro-8H-[1,2,4]triazolo[4,3-a]pyrazin-7-yl)-thieno[2,3-d]pyrimidin-2-yl]-piperidine-3-carboxylic acid] | 58 nM | 21 nM |
| CCCc1cc2c(N3CCn4c(nnc4C(F)(F)F)C3)nc(N3CCCC(C(=O)OC(C)C)C3)nc2s1 (centres unmarked) [Example 1-47, 1-[6-Propyl-4-(3-trifluoromethyl-5,6-dihydro-8H-[1,2,4]triazolo[4,3-a]pyrazin-7-yl)-thieno[2,3-d]pyrimidin-2-yl]-piperidine-3-carboxylic acid isopropyl ester] | 1900 nM | 280 nM |
| CCCc1cc2c(N3CCn4c(nnc4C(F)(F)F)C3)nc(N3CCCC(C(=O)OCOC(=O)C(C)(C)C)C3)nc2s1 (centres unmarked) [Example 1-48, 1-[6-Propyl-4-(3-trifluoromethyl-5,6-dihydro-8H-[1,2,4]triazolo[4,3-a]pyrazin-7-yl)-thieno[2,3-d]pyrimidin-2-yl]-piperidine-3-carboxylic acid 2,2-dimethyl-propionyloxymethyl ester] | 1300 nM | 400 nM |
| CCCc1cc2c(N3CCn4c(nnc4C(F)(F)F)C3)nc(N3CCC[C@H]3C(=O)OC)nc2s1 [Example 1-49, (S)-1-[6-Propyl-4-(3-trifluoromethyl-5,6-dihydro-8H-[1,2,4]triazolo[4,3-a]pyrazin-7-yl)-thieno[2,3-d]pyrimidin-2-yl]-pyrrolidine-2-carboxylic acid methyl ester] | 230 nM | 98 nM |
| CCCc1cc2c(N3CCn4c(nnc4C(F)(F)F)C3)nc(N3CCC[C@H]3C(=O)O)nc2s1 [Example 1-50, (S)-1-[6-Propyl-4-(3-trifluoromethyl-5,6-dihydro-8H-[1,2,4]triazolo[4,3-a]pyrazin-7-yl)-thieno[2,3-d]pyrimidin-2-yl]-pyrrolidine-2-carboxylic acid] | 40 nM | 110 nM |
| CCCc1cc2c(N3CCn4c(nnc4C(F)(F)F)C3)nc(N3CCC[C@H]3C(=O)OC(C)C)nc2s1 [Example 1-51, (S)-1-[6-Propyl-4-(3-trifluoromethyl-5,6-dihydro-8H-[1,2,4]triazolo[4,3-a]pyrazin-7-yl)-thieno[2,3-d]pyrimidin-2-yl]-pyrrolidine-2-carboxylic acid isopropyl ester] | 800 nM | 220 nM |
| CCCc1cc2c(N3CCn4c(nnc4C(F)(F)F)C3)nc(N3CCC[C@H]3C(=O)OCOC(=O)C(C)(C)C)nc2s1 [Example 1-52, (S)-1-[6-Propyl-4-(3-trifluoromethyl-5,6-dihydro-8H-[1,2,4]triazolo[4,3-a]pyrazin-7-yl)-thieno[2,3-d]pyrimidin-2-yl]-pyrrolidine-2-carboxylic acid 2,2-dimethyl-propionyloxymethyl ester] | > 4000 nM | 1030 nM |
| CCCc1cc2c(N3CCn4c(nnc4C(F)(F)F)C3)nc(N3CCC[C@@H]3C(=O)O)nc2s1 [Example 1-54, (R)-1-[6-Propyl-4-(3-trifluoromethyl-5,6-dihydro-8H-[1,2,4]triazolo[4,3-a]pyrazin-7-yl)-thieno[2,3-d]pyrimidin-2-yl]-pyrrolidine-2-carboxylic acid] | 130 nM | 143 nM |
| CCCc1cc2c(N3CCn4c(nnc4C(F)(F)F)C3)nc(N3CCC(C#N)C3)nc2s1 (centres unmarked) [Example 1-55, 1-[6-Propyl-4-(3-trifluoromethyl-5,6-dihydro-8H-[1,2,4]triazolo[4,3-a]pyrazin-7-yl)-thieno[2,3-d]pyrimidin-2-yl]-pyrrolidine-3-carbonitrile] | 27 nM | 60 nM |
| CCCc1cc2c(N3CCn4c(nnc4C(F)(F)F)C3)nc(N3CC[C@H](C(=O)O)C3)nc2s1 [Example 1-57, (S)-1-[6-Propyl-4-(3-trifluoromethyl-5,6-dihydro-8H-[1,2,4]triazolo[4,3-a]pyrazin-7-yl)-thieno[2,3-d]pyrimidin-2-yl]-pyrrolidine-3-carboxylic acid] | 54 nM | 15 nM |
| CCCc1cc2c(N3CCn4c(nnc4C(F)(F)F)C3)nc(N3CC[C@H](C(=O)OC(C)C)C3)nc2s1 [Example 1-58, (S)-1-[6-Propyl-4-(3-trifluoromethyl-5,6-dihydro-8H-[1,2,4]triazolo[4,3-a]pyrazin-7-yl)-thieno[2,3-d]pyrimidin-2-yl]-pyrrolidine-3-carboxylic acid isopropyl ester] | 700 nM | 190 nM |
